Data: ChEMBL document CHEMBL5291721, “A preclinical secondary pharmacology resource illuminates target-adverse drug reaction associations of marketed drugs” (Nat Commun, 2023)

Columns and labels:
[1] = biological target: T1, Gastrin/cholecystokinin type B receptor (Homo sapiens, UniProt P32239)
T1 sequence (P32239 whole entry): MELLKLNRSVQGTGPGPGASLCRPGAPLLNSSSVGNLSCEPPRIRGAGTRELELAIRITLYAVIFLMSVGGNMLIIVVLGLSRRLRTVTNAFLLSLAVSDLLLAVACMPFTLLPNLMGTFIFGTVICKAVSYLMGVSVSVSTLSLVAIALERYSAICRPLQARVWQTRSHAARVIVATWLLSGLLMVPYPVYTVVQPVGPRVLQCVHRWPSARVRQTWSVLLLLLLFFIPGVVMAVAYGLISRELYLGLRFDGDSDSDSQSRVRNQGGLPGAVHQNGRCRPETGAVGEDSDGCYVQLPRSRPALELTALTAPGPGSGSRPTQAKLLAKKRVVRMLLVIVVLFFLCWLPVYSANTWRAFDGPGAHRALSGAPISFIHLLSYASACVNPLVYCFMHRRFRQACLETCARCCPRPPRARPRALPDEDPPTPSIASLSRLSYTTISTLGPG

B2 bradykinin receptor = biological target: T2, B2 bradykinin receptor (Homo sapiens, UniProt P30411)
T2 sequence (P30411 whole entry): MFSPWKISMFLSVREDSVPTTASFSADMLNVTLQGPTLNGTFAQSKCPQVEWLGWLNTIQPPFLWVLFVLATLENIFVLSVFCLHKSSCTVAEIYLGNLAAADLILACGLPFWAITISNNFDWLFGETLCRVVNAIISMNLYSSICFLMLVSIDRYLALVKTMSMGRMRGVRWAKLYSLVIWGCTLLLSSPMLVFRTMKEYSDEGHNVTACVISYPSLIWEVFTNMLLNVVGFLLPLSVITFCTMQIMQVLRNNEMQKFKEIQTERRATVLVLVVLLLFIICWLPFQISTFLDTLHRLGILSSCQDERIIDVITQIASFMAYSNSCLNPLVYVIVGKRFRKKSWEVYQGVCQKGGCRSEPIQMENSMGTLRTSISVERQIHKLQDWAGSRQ

Histamine H1 receptor = Histamine H1 receptor (Homo sapiens, UniProt P35367)
[2] = biological target: T3, 5-hydroxytryptamine receptor 3A (Homo sapiens, UniProt P46098); format: functional
T3 sequence (P46098 whole entry): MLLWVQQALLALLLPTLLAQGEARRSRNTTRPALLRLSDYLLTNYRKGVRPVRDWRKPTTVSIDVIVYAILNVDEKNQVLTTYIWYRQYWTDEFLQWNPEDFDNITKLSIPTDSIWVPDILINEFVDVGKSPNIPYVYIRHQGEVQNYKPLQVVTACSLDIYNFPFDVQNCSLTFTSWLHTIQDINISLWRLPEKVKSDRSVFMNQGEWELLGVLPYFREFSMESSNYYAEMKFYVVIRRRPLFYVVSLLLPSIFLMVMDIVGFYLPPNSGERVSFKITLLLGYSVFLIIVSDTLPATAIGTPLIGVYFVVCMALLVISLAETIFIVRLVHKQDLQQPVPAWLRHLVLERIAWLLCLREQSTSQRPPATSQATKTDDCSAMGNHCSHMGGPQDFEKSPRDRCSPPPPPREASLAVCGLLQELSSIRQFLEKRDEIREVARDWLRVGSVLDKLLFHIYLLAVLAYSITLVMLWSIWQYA

D(3) dopamine receptor = D(3) dopamine receptor (Homo sapiens, UniProt P35462)
[3] = biological target: T4, Alpha-2A adrenergic receptor (Homo sapiens, UniProt P08913); format: functional, cell-based
T4 sequence (P08913 whole entry): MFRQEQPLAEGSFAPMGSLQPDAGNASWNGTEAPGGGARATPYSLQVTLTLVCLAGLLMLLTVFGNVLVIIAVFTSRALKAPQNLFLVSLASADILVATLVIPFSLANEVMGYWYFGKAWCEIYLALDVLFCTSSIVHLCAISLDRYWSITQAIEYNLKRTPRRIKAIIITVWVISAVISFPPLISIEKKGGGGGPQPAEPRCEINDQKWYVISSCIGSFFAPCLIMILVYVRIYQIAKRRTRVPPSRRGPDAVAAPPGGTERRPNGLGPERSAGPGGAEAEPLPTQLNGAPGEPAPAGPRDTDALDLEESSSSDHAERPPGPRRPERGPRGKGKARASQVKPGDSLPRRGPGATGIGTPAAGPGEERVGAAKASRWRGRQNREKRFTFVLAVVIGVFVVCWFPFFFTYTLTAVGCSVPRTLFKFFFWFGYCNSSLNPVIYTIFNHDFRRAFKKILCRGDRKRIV

[4] = biological target: Gamma-aminobutyric acid receptor subunit alpha-1/alpha-2/beta-2/gamma-2 (Homo sapiens, UniProt P14867+P18507+P47869+P47870); format: functional, cell-based
Substance-P receptor = Substance-P receptor (Homo sapiens, UniProt P25103)
Progesterone receptor = biological target: T5, Progesterone receptor (Homo sapiens, UniProt P06401)
T5 sequence (P06401 whole entry): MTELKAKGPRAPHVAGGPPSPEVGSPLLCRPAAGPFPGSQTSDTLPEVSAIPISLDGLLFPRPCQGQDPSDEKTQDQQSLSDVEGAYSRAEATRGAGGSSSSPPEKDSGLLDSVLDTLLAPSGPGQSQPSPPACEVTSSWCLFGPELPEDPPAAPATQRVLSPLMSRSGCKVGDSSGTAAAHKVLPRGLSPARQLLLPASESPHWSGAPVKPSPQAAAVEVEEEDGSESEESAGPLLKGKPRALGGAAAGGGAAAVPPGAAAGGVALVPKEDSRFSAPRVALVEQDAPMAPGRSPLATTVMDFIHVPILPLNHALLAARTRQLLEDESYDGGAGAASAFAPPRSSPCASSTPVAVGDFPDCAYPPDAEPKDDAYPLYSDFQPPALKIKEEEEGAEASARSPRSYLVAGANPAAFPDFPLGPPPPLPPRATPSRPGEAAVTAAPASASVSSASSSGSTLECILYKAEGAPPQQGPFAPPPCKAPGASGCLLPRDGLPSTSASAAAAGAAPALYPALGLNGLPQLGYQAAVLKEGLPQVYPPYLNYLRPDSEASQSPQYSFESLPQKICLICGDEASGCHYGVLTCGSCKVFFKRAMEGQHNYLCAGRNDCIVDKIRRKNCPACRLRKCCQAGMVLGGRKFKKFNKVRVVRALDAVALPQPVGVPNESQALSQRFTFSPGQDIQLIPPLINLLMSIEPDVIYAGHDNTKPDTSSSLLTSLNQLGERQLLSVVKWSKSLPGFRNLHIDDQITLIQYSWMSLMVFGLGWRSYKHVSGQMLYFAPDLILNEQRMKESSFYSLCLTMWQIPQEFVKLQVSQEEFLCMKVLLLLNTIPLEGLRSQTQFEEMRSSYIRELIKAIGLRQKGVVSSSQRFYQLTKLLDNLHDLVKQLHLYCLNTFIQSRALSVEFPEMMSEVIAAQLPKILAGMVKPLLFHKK
Note: assay procedure not described here.

Substance-P receptor, sequence (P25103 whole entry): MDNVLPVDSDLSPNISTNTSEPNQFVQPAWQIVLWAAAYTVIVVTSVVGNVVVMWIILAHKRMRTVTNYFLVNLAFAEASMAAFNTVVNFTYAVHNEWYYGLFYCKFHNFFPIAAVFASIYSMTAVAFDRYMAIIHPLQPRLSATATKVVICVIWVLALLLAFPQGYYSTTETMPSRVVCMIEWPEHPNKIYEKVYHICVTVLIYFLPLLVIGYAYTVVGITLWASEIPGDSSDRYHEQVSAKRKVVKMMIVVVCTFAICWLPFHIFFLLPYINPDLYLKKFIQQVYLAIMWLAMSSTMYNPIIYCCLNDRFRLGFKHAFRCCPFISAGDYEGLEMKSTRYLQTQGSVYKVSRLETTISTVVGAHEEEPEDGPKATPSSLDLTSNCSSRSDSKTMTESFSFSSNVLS
Histamine H1 receptor, sequence (P35367 whole entry): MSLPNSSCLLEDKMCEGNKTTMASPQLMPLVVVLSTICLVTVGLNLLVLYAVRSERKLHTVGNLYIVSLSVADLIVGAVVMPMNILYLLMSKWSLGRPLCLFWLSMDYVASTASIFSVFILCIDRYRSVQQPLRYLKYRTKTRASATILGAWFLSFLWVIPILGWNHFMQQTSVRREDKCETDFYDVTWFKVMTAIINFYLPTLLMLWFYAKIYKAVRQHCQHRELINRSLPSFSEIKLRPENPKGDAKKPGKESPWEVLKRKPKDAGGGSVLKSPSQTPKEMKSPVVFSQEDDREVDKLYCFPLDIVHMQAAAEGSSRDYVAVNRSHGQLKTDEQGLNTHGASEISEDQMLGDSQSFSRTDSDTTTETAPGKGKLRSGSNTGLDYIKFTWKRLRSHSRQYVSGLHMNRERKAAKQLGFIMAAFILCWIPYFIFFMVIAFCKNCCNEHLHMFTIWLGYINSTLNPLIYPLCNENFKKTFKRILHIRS
Gamma-aminobutyric acid receptor subunit alpha-1/alpha-2/beta-2/gamma-2, sequence (P14867 whole entry): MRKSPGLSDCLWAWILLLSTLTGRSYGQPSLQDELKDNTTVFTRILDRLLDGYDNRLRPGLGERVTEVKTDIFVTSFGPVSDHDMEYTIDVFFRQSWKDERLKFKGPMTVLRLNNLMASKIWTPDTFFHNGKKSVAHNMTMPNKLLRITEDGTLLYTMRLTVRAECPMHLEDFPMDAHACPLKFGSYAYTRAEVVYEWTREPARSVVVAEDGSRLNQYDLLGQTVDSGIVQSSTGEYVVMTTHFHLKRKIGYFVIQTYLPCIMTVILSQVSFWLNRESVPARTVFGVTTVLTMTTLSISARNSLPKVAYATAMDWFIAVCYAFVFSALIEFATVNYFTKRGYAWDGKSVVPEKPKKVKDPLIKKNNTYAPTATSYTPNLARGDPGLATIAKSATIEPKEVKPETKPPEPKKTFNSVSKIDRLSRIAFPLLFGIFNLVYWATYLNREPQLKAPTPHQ
Gamma-aminobutyric acid receptor subunit alpha-1/alpha-2/beta-2/gamma-2, sequence (P47870 whole entry): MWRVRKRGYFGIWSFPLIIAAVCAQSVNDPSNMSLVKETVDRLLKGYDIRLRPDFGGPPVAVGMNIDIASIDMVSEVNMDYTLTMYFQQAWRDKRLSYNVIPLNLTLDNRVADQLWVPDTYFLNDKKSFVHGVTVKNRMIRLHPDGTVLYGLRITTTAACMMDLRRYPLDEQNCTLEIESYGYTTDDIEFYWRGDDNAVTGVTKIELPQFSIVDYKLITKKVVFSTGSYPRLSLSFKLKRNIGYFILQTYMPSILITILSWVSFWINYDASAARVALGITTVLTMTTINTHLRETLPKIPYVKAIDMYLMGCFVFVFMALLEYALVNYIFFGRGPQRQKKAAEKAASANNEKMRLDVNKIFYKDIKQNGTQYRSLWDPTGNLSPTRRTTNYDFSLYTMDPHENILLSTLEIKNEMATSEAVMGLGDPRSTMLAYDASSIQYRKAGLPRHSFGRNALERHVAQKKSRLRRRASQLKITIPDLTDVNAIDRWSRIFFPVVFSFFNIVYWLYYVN
Gamma-aminobutyric acid receptor subunit alpha-1/alpha-2/beta-2/gamma-2, sequence (P18507 whole entry): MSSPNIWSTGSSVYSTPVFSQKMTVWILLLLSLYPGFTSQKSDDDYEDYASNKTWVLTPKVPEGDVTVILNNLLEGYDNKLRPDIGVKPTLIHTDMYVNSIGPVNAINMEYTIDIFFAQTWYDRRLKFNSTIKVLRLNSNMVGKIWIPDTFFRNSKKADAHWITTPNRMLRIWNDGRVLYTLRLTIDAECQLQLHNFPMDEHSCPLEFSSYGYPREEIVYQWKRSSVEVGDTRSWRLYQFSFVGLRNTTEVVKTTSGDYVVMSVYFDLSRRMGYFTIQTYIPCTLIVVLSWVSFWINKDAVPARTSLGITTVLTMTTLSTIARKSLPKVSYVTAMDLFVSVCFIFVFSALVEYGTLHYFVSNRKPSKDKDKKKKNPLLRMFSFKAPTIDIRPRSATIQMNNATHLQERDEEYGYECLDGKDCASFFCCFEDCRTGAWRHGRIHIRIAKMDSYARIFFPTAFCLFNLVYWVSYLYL
Gamma-aminobutyric acid receptor subunit alpha-1/alpha-2/beta-2/gamma-2, sequence (P47869 whole entry): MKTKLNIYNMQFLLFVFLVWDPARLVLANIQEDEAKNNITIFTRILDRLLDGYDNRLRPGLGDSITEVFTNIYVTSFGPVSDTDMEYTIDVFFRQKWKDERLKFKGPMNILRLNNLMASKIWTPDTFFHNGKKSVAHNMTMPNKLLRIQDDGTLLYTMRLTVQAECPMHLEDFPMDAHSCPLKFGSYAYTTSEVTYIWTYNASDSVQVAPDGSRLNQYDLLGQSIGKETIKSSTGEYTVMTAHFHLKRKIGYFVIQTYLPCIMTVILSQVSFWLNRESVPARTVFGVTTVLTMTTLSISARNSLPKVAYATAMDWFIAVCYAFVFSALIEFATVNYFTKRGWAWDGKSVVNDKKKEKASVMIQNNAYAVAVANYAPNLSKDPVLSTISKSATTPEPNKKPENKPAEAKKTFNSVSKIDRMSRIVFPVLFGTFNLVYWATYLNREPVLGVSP
D(3) dopamine receptor, sequence (P35462 whole entry): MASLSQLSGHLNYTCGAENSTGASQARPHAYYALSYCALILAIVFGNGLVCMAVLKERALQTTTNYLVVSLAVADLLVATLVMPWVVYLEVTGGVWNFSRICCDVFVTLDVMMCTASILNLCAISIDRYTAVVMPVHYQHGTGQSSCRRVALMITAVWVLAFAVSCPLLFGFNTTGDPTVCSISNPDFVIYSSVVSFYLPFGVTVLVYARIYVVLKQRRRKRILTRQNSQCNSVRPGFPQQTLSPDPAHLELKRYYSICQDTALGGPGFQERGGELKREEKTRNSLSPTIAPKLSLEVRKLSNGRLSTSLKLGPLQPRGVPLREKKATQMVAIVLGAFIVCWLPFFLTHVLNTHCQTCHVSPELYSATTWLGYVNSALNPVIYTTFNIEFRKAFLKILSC

Compound `CCC(CC)(CC(=O)Nc1cccc(/C=C/c2nc(C3CCC3)cs2)c1)C(=O)O` has an AC50 [1] of over 30 µM and an AC50 (B2 bradykinin receptor) of over 30 µM.
Work on `Cc1oc(=O)oc1CN1CCN(c2cc3c(cc2F)c(=O)c(C(=O)O)c2n3C(C)S2)CC1` (stereo not given) [PRULIFLOXACIN] yielded an AC50 (Histamine H1 receptor) of over 30 µM, an AC50 [2] of over 30 µM and an AC50 (D(3) dopamine receptor) of over 30 µM. For the same compound, the AC50 [3] was over 30 µM and the AC50 [4] was over 30 µM.
`COc1ccc(C(=O)Nc2ccccc2CCC2CCCCN2C)cc1` (stereo not given) [ENCAINIDE] gave an AC50 (Histamine H1 receptor) of over 10 µM, an AC50 [2] of over 30 µM and an AC50 (D(3) dopamine receptor) of over 10 µM. It also gave an AC50 (Substance-P receptor) of over 10 µM, an AC50 (Progesterone receptor) of over 30 µM and an AC50 [1] of over 30 µM. For the same compound, the AC50 (B2 bradykinin receptor) was over 30 µM and the AC50 [3] was over 10 µM.
`CCCCCNC(=N)N/N=C/c1c[nH]c2ccc(OC)cc12` [TEGASEROD] was tested, and the AC50 (Histamine H1 receptor) was over 30 µM, the AC50 [2] was over 30 µM and the AC50 (D(3) dopamine receptor) was 3.5 µM. The AC50 (Substance-P receptor) was over 10 µM, the AC50 (Progesterone receptor) was over 30 µM and the AC50 [1] was over 30 µM. It also gave an AC50 (B2 bradykinin receptor) of over 30 µM and an AC50 [3] of 5.65 µM.
With `CC[C@@H](C(N)=O)N1CCCC1=O` the AC50 (Histamine H1 receptor) was over 10 µM, the AC50 [2] was over 30 µM and the AC50 (D(3) dopamine receptor) was over 30 µM. The AC50 [1] was over 30 µM, the AC50 (B2 bradykinin receptor) was over 30 µM and the AC50 [3] was over 30 µM. For the same compound, the AC50 [4] was over 30 µM.
Compound `O=[N+]([O-])c1cn2c(n1)OC[C@@H](OCc1ccc(OC(F)(F)F)cc1)C2` [PRETOMANID] has an AC50 (Histamine H1 receptor) of over 10 µM, an AC50 [2] of over 10 µM and an AC50 (D(3) dopamine receptor) of over 10 µM. For the same compound, the AC50 (Substance-P receptor) was over 10 µM, the AC50 [1] was over 30 µM and the AC50 (B2 bradykinin receptor) was over 30 µM.
Compound `CN(C)CCC=C1c2ccccc2C=Cc2ccccc21` [CYCLOBENZAPRINE] has an AC50 (Histamine H1 receptor) of 0.021 µM, an AC50 [2] of over 30 µM and an AC50 (D(3) dopamine receptor) of 1.1 µM. The AC50 (Progesterone receptor) was over 30 µM, the AC50 [1] was over 30 µM and the AC50 (B2 bradykinin receptor) was over 30 µM. For the same compound, the AC50 [3] was over 10 µM.
With `CCOc1ccc(Cc2cc([C@@H]3O[C@H](CO)[C@@H](O)[C@H](O)[C@H]3O)ccc2Cl)cc1` [DAPAGLIFLOZIN] the AC50 (Histamine H1 receptor) was over 10 µM, the AC50 [2] was over 30 µM and the AC50 (D(3) dopamine receptor) was over 30 µM. It also gave an AC50 (Progesterone receptor) of over 30 µM, an AC50 [1] of over 30 µM and an AC50 (B2 bradykinin receptor) of over 30 µM.
`CCOc1ccccc1OCC1CNCCO1` (stereo not given) [VILOXAZINE] showed an AC50 (Histamine H1 receptor) of over 10 µM, an AC50 [2] of over 10 µM and an AC50 (D(3) dopamine receptor) of over 10 µM. The AC50 (Substance-P receptor) was over 10 µM, the AC50 (Progesterone receptor) was over 30 µM and the AC50 [1] was over 30 µM. For the same compound, the AC50 (B2 bradykinin receptor) was over 30 µM and the AC50 [3] was over 10 µM.
Compound `CC(=O)c1ccc2c(c1)N(CCCN(C)C)c1ccccc1S2` [ACEPROMAZINE] has an AC50 (D(3) dopamine receptor) of 0.013 µM.
For `CN(C)CCc1c[nH]c2ccc(C[C@H]3COC(=O)N3)cc12` [ZOLMITRIPTAN], the AC50 (Histamine H1 receptor) was over 30 µM, the AC50 [2] was over 30 µM and the AC50 (D(3) dopamine receptor) was over 30 µM. The AC50 [1] was over 30 µM, the AC50 (B2 bradykinin receptor) was over 30 µM and the AC50 [3] was over 30 µM. The AC50 [4] was over 30 µM.
